Measured values published in paper PMC10005332, “It Takes Two to Tango, Part II: Synthesis of A-Ring Functionalised Quinones Containing Two Redox-Active Centres with Antitumour Activities” (Molecules, 2023).
Where two headings read alike, the source gives them in different places.

Experiments:
[1] = tested on: HL60 (human pro-myelocytic leukaemia); test: MTT cytotoxicity assay, HL60; type: cell-based; settings: for IC50: MTT, 72 h exposure, three independent experiments, read-out: Cytotoxic activity IC50 (95% CI) HL60; for Selectivity index HL60: ratio of cytotoxicity L929 / HL60
Procedure: (§1) In this study, the IC50 was obtained in micromolar concentrations, using the colourimetric MTT (3-(4,5-dimethylthiazol-2-yl)-2,5-diphenyl tetrazolium bromide)) assay, and doxorubicin was used as the positive control. […] The activity against the non-tumoural murine fibroblast cell line L929 was also evaluated in order to study the cytotoxicity behaviour of each compound and to understand their respective relative selectivity. The selectivity index was obtained using the ratio of measured cytotoxicity between the L929 cell line and each of the cancer cell lines, and the results are presented in Table 2.
(§2) The in vitro cytotoxicity activity of the compounds was evaluated by the colorimetric MTT (3-(4,5-dimethylthiazol-2-yl)-2,5-diphenyl tetrazolium bromide)) assay using the following tumor cell lines: HCT-116 (colon carcinoma), PC3 (prostate), SNB-19 (glioblastoma), K-562 (myelogenous leukaemia), HL-60 (human promyelocytic leukaemia), B16 (murine melanoma), A549 (human lung carcinoma), KG1 (human acute myeloid leukaemia), and RAJI (human Burkitt’s lymphoma), which were provided by the National Cancer Institute (Bethesda, MD, USA). The L929 cell line (mouse fibroblast L cells NCTC clone 929) employed in this study as a control cell line was obtained from the American Type Culture Collection (Manassas, VA, USA). The cell lines (Table S4) were maintained in flasks containing RPMI 1640 or DMEM medium supplemented with 10% bovive fetal sérum, 100 U/mL penicillin, and 100 μg/mL streptomycin at 37 °C and in 5% CO2 atmosphere. The compounds tested were dissolved in DMSO. Doxorubicin served as the positive control. Cell treatments were performed with three replicates and the cells were mycoplasma free. After 72 h incubation, 100 μL of MTT solution (0.5 mg/mL) was added to each well, and the cells were incubated for 3 h. The supernatant was removed and 100 μL of DMSO was added and the absorbance at 595 nm was measured using Victor Nivo Multimode plate reader (PerkinElmer, Waltham, MA, USA). The absorbances obtained were used to calculate the IC50 values by nonlinear regression employing appropriate statistical software.
(§3) The in vitro cytotoxicity activity of compounds was evaluated by the colorimetric MTT (3-(4,5-dimethylthiazol-2-yl)-2,5-diphenyl tetrazolium bromide)) assay using tumor cell lines: HCT-116 (colon carcinoma), PC3 (prostate), SNB-19 (glioblastoma), K-562 (myelogenous leukaemia), HL-60 (human promyelocytic leukaemia), B16 (murine melanoma), A549 (human lung carcinoma), KG1 (human acute myeloid leukaemia) and RAJI (human Burkitt's lymphoma), which were provided by the National Cancer Institute (Bethesda, MD, USA). The L929 cell line (mouse fibroblast L cells NCTC clone 929) employed in this study as a control cell line was obtained from the American Type Culture […]
(§4) Collection (Manassas, VA, USA). Cell lines (Table 01) were maintained in flasks containing RPMI 1640 or DMEM medium supplemented with 10% bovive fetal sérum, 100 U/mL penicillin, and 100 μg/mL streptomycin at 37 °C and 5% CO2 atmosphere.
(§5) Compounds tested were dissolved in DMSO. Doxorubicin served as positive control. Cell treatments were performed with three replicates and cells were mycoplasma-free. After 72 h incubation, 100 μL of MTT solution (0.5 mg/mL) was added to each well, and cells were incubated for 3 h. The supernatant was removed and 100 μL of DMSO was added and the absorbance at 595 nm was measured using Victor Nivo Multimode plate reader

[2] = tested on: HCT-116 (human colorectal carcinoma); test: MTT cytotoxicity assay, HCT-116; type: cell-based; settings: for IC50: Homo sapiens, HCT-116, 72 h, MTT, 72 h exposure, three independent experiments, read-out: Cytotoxic activity IC50 (95% CI) HCT-116; for Selectivity index HCT-116: ratio of cytotoxicity L929 / HCT-116
Procedure: as §1, §2, §3, §4, §5

[3] = tested on: PC3 (human prostate adenocarcinoma); test: MTT cytotoxicity assay, PC3; type: cell-based; settings: for IC50: Homo sapiens, MTT, 72 h exposure, three independent experiments, read-out: Cytotoxic activity IC50 (95% CI) PC3; for Selectivity index PC3: ratio of cytotoxicity L929 / PC3
Procedure: as §1, §2, §3, §4, §5

[4] = tested on: A549 (human lung carcinoma); test: MTT cytotoxicity assay, A549; type: cell-based; settings: for IC50: Homo sapiens, A549, MTT, 72 h exposure, three independent experiments, read-out: Cytotoxic activity IC50 (95% CI) A549; for Selectivity index A549: ratio of cytotoxicity L929 / A549
Procedure: as §1, §2, §3, §4, §5

[5] = tested on: KG1 (human acute myeloid leukaemia); test: MTT cytotoxicity assay, KG1; type: cell-based; settings: for IC50: Homo sapiens, MTT, 72 h exposure, three independent experiments, read-out: Cytotoxic activity IC50 (95% CI) KG1; for Selectivity index KG1: ratio of cytotoxicity L929 / KG1
Procedure: as §1, §2, §3, §4, §5

[6] = tested on: K-562 (human chronic myeloid leukaemia); test: MTT cytotoxicity assay, K-562; type: cell-based; settings: for IC50: Homo sapiens, K562, MTT, 72 h exposure, three independent experiments, read-out: Cytotoxic activity IC50 (95% CI) K-562; for Selectivity index K-562: ratio of cytotoxicity L929 / K-562
Procedure: as §1, §2, §3, §4, §5

[7] = MTT cytotoxicity assay, L929 control line; type: cell-based, mouse; settings: mouse, L929 fibroblast cells (non-tumoral control line), 72 h exposure, read-out: Cytotoxic activity IC50 (95% CI) L929
Procedure: as §1, §2, §3, §4, §5

[8] = tested on: SNB-19 (human astrocytoma); test: MTT cytotoxicity assay, SNB-19; type: cell-based; settings: for IC50: Homo sapiens, SNB-19, MTT, 72 h exposure, three independent experiments, read-out: Cytotoxic activity IC50 (95% CI) SNB-19; for Selectivity index SNB-19: ratio of cytotoxicity L929 / SNB-19
Procedure: as §1, §2, §3, §4, §5

[9] = tested on: RAJI (human Burkitt’s lymphoma); test: MTT cytotoxicity assay, RAJI; type: cell-based; settings: for IC50: MTT, 72 h exposure, three independent experiments, read-out: Cytotoxic activity IC50 (95% CI) RAJI; for Selectivity index RAJI: ratio of cytotoxicity L929 / RAJI
Procedure: as §1, §2, §3, §4, §5

B16 (murine melanoma) = test: MTT cytotoxicity assay, B16; type: cell-based; settings: for IC50: Mus musculus, MTT, 72 h exposure, three independent experiments, read-out: Cytotoxic activity IC50 (95% CI) B16; for Selectivity index B16: ratio of cytotoxicity L929 / B16
Procedure: as §1, §2, §3, §4, §5

Structure (SMILES)	IC50 ([1]; Homo sapiens, HL-60, 72 h) [µM]	Selectivity index HL60 [1]	IC50 [2] [µM]	Selectivity index HCT-116 [2]	IC50 [3] [µM]	Selectivity index PC3 [3]	IC50 [4] [µM]	Selectivity index A549 [4]	IC50 [5] [µM]	Selectivity index KG1 [5]	IC50 [6] [µM]	Selectivity index K-562 [6]	IC50 at 72 h [7] [µM]	IC50 [8] [µM]	Selectivity index SNB-19 [8]	IC50 ([9]; Homo sapiens, Raji, 72 h) [µM]	Selectivity index RAJI [9]	IC50 (B16 (murine melanoma)) [µM]	Selectivity index B16 (B16 (murine melanoma))	also measured
COc1cccc2c1C(=O)C(NCc1cn(C3C4=C(OC3(C)C)c3ccccc3C(=O)C4=O)nn1)=CC2=O (centres unmarked) [Compound 19c, 3-(4-(((8-methoxy-1,4-dioxo-1,4-dihydronaphthalen-2-yl)amino)methyl)-1H-1,2,3-triazol-1-yl)-2,2-dimethyl-2,3-dihydronaphtho[1,2-b]furan-4,5-dione]	1.07	8.6	1.6	5.7	3.5	2.6	3.06	3.0	4.77	1.9	3.06	3.0	9.17	8.19	1.1	0.9	9.9	1.74	5.3	IC50 [9]: 0.93 µM
CC1(C)OC2=C(C(=O)C(=O)c3ccccc32)C1N=[N+]=[N-] (centres unmarked) [Compound 4, 3-azido-2,2-dimethyl-2,3-dihydronaphtho[1,2-b]furan-4,5-dione]	1.08	2.5	1.96	1.4	5.93	0.5	3.65	0.8	5.98	0.5	1.42	1.9	2.74	2.09	1.3	2.46	1.1	1.77	1.5	
C#CCNC1=CC(=O)c2cccc(OC)c2C1=O [Compound 18c, 8-methoxy-2-(prop-2-yn-1-ylamino)naphthalene-1,4-dione]	> 100		> 100		> 100		> 100		> 100		> 100		> 100	> 100		39.3	2.5	43.8	2.3	
CC1(C)OC2=C(C(=O)C(=O)c3ccccc32)C1n1cc(CNC2=CC(=O)c3c(I)cccc3C2=O)nn1 (centres unmarked) [Compound 19a, 3-(4-(((5-iodo-1,4-dioxo-1,4-dihydronaphthalen-2-yl)amino)methyl)-1H-1,2,3-triazol-1-yl)-2,2-dimethyl-2,3-dihydronaphtho[1,2-b]furan-4,5-dione]	0.44	2.8	1	1.2	3.65	0.3	2.56	0.5	1.37	0.9	1.21	1.0	1.21	0.99	1.2	2.02	0.6	1.87	0.6	
CC1(C)OC2=C(CC1Cn1cc(CNC3=CC(=O)c4c(O)cccc4C3=O)nn1)C(=O)C(=O)c1ccccc12 (centres unmarked) [Compound 21b, 3-((4-(((5-hydroxy-1,4-dioxo-1,4-dihydronaphthalen-2-yl)amino)methyl)-1H-1,2,3-triazol-1-yl)methyl)-2,2-dimethyl-3,4-dihydro-2H-benzo[h]chromene-5,6-dione]	2.23	0.9	1.64	1.3	3.85	0.5	1.68	1.2	3.01	0.7	4.13	0.5	2.07	4.24	0.5	2.01	1.0	3.94	0.5	
CC1(C)OC2=C(CC1Cn1cc(CNC3=CC(=O)c4cc5ccccc5cc4C3=O)nn1)C(=O)C(=O)c1ccccc12 (centres unmarked) [Compound 21e, 3-((4-(((1,4-dioxo-1,4-dihydroanthracen-2-yl)amino)methyl)-1H-1,2,3-triazol-1-yl)methyl)-2,2-dimethyl-3,4-dihydro-2H-benzo[h]chromene-5,6-dione]	0.5	6.6	1.74	1.0	2.87	0.6	0.88	1.9	4.21	0.4	3.69	0.5	1.71	1.33	1.3	6.83	0.3	2.86	0.6	IC50 [1]: 0.26 µM
O=C1C(=O)c2ccccc2C2=C1CC(Cn1cc(CNC3=CC(=O)c4c(O)cccc4C3=O)nn1)O2 (centres unmarked) [Compound 20b, 2-((4-(((5-hydroxy-1,4-dioxo-1,4-dihydronaphthalen-2-yl)amino)methyl)-1H-1,2,3-triazol-1-yl)methyl)-2,3-dihydronaphtho[1,2-b]furan-4,5-dione]	5	5.5	7.22	3.8	10.2	2.7	18.9	1.5	23.3	1.2	12.8	2.2	27.6	9.47	2.9	2.49	11.1	4.52	6.1	
